Target: CDK12 (Homo sapiens, UniProt Q9NYV4)
Assay: Biochemical assay for CDK12 (LANCE TR-FRET, IC50 determination)
Settings: for IC50: CDK12, IC50 class, read-out: IC50 μM (in range); for inhibition at 10 µM: read-out: CDK12 % Inhibition @ 10 μM
Method: Biochemical Assay for CDK12 (IC50 Determination):
The inhibitory activity of the test compounds was assessed by the LANCE TR-FRET assay, which detects the ATP-dependent phosphorylation of an ULight-4E-BP1 (Thr37/Thr46) substrate peptide (100 nM) by CDK12 (30 nM). Briefly, the enzyme reaction was run in reaction buffer (25 mM HEPES (pH 7.5), 10 mM MgCl2, […], 0.01% Triton x, 1 mM DTT). The assay was performed in 384-well plate format. The end concentration of the ATP substrate was […], and that of the ULight-4E-BP1 (Thr37/Thr46) substrate peptide was 100 nM, and of CDK12 was 30 nM. Pre-incubation of the compound and enzyme was performed for 60 min at room temperature. After 60 min incubation at room temperature, the reaction was terminated by the addition of 40 mM EDTA and 0.5 nM Eu-labeled anti-phospho-eIF4E-binding protein (Thr37/46) antibody in LANCE detection buffer. Time-resolved fluorescence (excitation, 320 nm; emission donor, 615 nm; emission acceptor, 665 nm) was monitored by using 2030 multilabel reader Victor5 (PerkinElmer). The Fluorescence emission of the samples were measured and the ratio was plotted against the compound concentration to generate the dose response curve. The IC50 values were derived by fitting a sigmoidal dose-response curve to a plot of assay readout over inhibitor concentration. All fits were computed with the program Prism 5.03 (Graph Pad Software, San Diego, CA). The % inhibition values at […] were calculated with respect to enzyme activity.

Sequence of CDK12 (Q9NYV4 whole entry): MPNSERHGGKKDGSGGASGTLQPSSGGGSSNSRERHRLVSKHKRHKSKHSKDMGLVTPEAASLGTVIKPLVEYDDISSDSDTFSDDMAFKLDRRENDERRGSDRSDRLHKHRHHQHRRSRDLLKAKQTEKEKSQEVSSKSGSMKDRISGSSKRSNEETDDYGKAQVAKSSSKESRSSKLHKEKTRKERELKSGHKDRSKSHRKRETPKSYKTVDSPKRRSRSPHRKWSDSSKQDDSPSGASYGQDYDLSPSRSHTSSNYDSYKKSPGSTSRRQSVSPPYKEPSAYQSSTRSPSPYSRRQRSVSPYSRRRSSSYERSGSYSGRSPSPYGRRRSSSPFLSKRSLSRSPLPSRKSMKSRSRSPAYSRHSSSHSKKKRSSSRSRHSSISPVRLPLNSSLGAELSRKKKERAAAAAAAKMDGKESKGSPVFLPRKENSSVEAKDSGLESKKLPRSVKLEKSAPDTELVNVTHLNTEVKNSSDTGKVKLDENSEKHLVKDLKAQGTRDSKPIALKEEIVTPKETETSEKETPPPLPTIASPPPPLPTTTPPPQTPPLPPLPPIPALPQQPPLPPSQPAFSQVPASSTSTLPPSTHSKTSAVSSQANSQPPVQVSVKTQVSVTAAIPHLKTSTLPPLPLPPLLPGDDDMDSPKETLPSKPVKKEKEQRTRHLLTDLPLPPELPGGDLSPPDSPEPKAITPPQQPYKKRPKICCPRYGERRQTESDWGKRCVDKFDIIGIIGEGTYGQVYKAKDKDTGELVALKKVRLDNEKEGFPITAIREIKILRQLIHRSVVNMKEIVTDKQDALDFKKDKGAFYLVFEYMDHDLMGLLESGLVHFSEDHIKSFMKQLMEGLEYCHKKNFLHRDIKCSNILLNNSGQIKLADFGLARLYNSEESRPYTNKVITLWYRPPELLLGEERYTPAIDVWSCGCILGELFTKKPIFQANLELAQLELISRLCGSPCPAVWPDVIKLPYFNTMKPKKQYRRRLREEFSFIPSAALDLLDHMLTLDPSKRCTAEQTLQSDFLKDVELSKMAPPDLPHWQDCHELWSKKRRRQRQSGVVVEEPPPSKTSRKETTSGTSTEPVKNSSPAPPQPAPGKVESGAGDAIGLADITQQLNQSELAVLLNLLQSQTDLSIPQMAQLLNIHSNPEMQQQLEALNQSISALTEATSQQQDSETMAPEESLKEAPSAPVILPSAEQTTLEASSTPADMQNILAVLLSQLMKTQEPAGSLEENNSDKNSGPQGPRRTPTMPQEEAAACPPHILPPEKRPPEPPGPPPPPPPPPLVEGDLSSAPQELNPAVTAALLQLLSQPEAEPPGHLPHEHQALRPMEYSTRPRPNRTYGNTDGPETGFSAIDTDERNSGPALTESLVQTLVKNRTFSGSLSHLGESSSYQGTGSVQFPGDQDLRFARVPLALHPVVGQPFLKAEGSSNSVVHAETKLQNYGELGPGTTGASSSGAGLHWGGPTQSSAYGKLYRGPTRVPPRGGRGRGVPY
Sequence of CDK12 (O75909 whole entry partner): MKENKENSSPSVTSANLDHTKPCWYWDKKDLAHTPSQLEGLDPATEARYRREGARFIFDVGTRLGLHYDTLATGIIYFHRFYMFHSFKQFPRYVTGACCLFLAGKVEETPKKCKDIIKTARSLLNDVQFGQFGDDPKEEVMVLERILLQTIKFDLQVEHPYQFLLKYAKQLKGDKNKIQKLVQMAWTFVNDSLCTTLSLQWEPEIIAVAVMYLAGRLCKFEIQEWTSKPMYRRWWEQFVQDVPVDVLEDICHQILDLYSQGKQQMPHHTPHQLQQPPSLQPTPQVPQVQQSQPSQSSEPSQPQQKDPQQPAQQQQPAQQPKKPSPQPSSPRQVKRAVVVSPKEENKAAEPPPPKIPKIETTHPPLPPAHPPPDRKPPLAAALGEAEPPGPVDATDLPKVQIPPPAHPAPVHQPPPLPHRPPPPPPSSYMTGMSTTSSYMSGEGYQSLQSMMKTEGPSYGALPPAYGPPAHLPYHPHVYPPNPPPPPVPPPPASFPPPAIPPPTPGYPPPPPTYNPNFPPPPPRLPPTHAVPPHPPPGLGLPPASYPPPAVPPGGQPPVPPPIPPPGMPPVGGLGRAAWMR

IC50 [µM]	CDK12 % Inhibition @ 10 μM (compound at 10 μM, 10 µM) [%]	inhibition at 10 µM (compound at 10 μM) [%]	SMILES
< 0.01	92		COc1cc(NC(=O)Cc2ccc(C3=CCN(C#N)CC3C)nc2)ncc1Cl (single isomer, unassigned) [Compound 72, N-(5-chloro-4-methoxypyridin-2-yl)-2-(1′-cyano-3′-methyl-1′,2′,3′,6′-tetrahydro-[2,4′-bipyridin]-5-yl)acetamide]
		64	CN1CCN(c2cc(NC(=O)Cc3ccc(C4=CCN(C#N)CC4)nc3)ncc2Cl)CC1 [Compound 9, N-(5-chloro-4-(4-methylpiperazin-1-yl)pyridin-2-yl)-2-(1′-cyano-1′,2′,3′,6′-tetrahydro-[2,4′-bipyridin]-5-yl)acetamide]
0.01 to 0.1		87	COc1cc(NC(=O)Cc2ccc(C3CCCN(C#N)C3)nc2)ncc1Cl (stereo not drawn) [Compound 78, N-(5-chloro-4-methoxypyridin-2-yl)-2-(6-(1-cyanopiperidin-3-yl)pyridin-3-yl)acetamide]
0.01 to 0.1		84	COc1cc(NC(=O)Cc2ccc(-c3cc(N4C[C@H]5CC[C@@H](C4)O5)cc(C#N)n3)nc2)ncc1Cl [Compound 195, 2-(4′-((1R,5S)-8-oxa-3-azabicyclo[3.2.1]octan-3-yl)-6′-cyano-[2,2′-bipyridin]-5-yl)-N-(5-chloro-4-methoxypyridin-2-yl)acetamide]
> 0.1		94	COc1cc(NC(=O)Cc2ccc(-c3cc(N4CCC(C)(O)C4)cc(C#N)n3)nc2)ncc1Cl (stereo not drawn) [Compound 194, N-(5-chloro-4-methoxypyridin-2-yl)-2-(6′-cyano-4′-(3-hydroxy-3-methylpyrrolidin-1-yl)-[2,2′-bipyridin]-5-yl)acetamide]
0.01 to 0.1		88	N#CN1CC=C(c2ccc(CC(=O)Nc3cc(N4CCOCC4)c(Cl)cn3)cn2)CC1 [Compound 7, N-(5-chloro-4-morpholinopyridin-2-yl)-2-(1′-cyano-1′,2′,3′,6′-tetrahydro-[2,4′-bipyridin]-5-yl)acetamide]
0.01 to 0.1		94	COc1cc(NC(=O)Cc2ccc(-c3cc(N4CCN(C)CC4)cc(C#N)n3)nc2)ncc1Cl [Compound 191, N-(5-chloro-4-methoxypyridin-2-yl)-2-(6′-cyano-4′-(4-methylpiperazin-1-yl)-[2,2′-bipyridin]-5-yl)acetamide]
> 0.1		52	CN1CCC[C@@H](Oc2cc(NC(=O)Cc3ccc(C4CCN(C#N)CC4)nc3)ncc2Cl)C1 [Compound 126, (R)-N-(5-chloro-4-((1-methylpiperidin-3-yl)oxy)pyridin-2-yl)-2-(6-(1-cyanopiperidin-4-yl)pyridin-3-yl)acetamide]
< 0.01		91	COc1cc(NC(=O)Cc2ccc(C3=CCCN(C#N)C3)cc2)ncc1Cl [Compound 114, N-(5-chloro-4-methoxypyridin-2-yl)-2-(4-(1-cyano-1,2,5,6-tetrahydropyridin-3-yl)phenyl)acetamide]
< 0.01		94	COc1cc(NC(=O)Cc2ccc(C3=CCN(C#N)CC3C)nc2)ncc1Cl (stereo not drawn) [Compound 70, N-(5-chloro-4-methoxypyridin-2-yl)-2-(1′-cyano-3′-methyl-1′,2′,3′,6′-tetrahydro-[2,4′-bipyridin]-5-yl)acetamide]
< 0.01		94	CN1CCC(Oc2cc(NC(=O)Cc3ccc(C4=CCCN(C#N)C4)nc3)ncc2Cl)CC1 [Compound 37, N-(5-chloro-4-((1-methylpiperidin-4-yl)oxy)pyridin-2-yl)-2-(1′-cyano-1′,2′,5′,6′-tetrahydro-[2,3′-bipyridin]-5-yl)acetamide]
< 0.01		93	CN1CC2(CC(Oc3cc(NC(=O)Cc4ccc(C5=CCCN(C#N)C5)nc4)ncc3Cl)C2)C1 [Compound 69, N-(5-chloro-4-((2-methyl-2-azaspiro[3.3]heptan-6-yl)oxy)pyridin-2-yl)-2-(1′-cyano-1′,2′,5′,6′-tetrahydro-[2,3′-bipyridin]-5-yl)acetamide]
		23	COc1cc(NC(=O)Cc2ccc(C3=CCCN(C#N)C3)c(OC)c2)ncc1Cl [Compound 116, N-(5-chloro-4-methoxypyridin-2-yl)-2-(4-(1-cyano-1,2,5,6-tetrahydropyridin-3-yl)-3-methoxyphenyl)acetamide]
0.01 to 0.1		73	N#CN1CCCC(c2ccc(CC(=O)Nc3cc(O[C@@H]4CCOC4)c(Cl)cn3)cn2)C1 (single isomer, unassigned) [Compound 93]
0.01 to 0.1		98	CN1CC[C@H](Oc2cc(NC(=O)Cc3ccc(C4=CCCN(C#N)C4)nc3)ncc2Cl)C1 [Compound 39, (S)-N-(5-chloro-4-((1-methylpyrrolidin-3-yl)oxy)pyridin-2-yl)-2-(1′-cyano-1′,2′,5′,6′-tetrahydro-[2,3′-bipyridin]-5-yl)acetamide]
> 0.1		80	CC1(C)CCC(Oc2cc(NC(=O)Cc3ccc(C4=CCN(C#N)CC4)nc3)ncc2Cl)CN1 (stereo not drawn) [Compound 138, N-(5-chloro-4-((6,6-dimethylpiperidin-3-yl)oxy)pyridin-2-yl)-2-(1′-cyano-1′,2′,3′,6′-tetrahydro-[2,4′-bipyridin]-5-yl)acetamide]
< 0.01		77	N#Cc1cccc(-c2ccc(CC(=O)Nc3cc(O[C@@H]4CCOC4)c(Cl)cn3)cn2)n1 [Compound 154, (R)-N-(5-chloro-4-((tetrahydrofuran-3-yl)oxy)pyridin-2-yl)-2-(6′-cyano-[2,2′-bipyridin]-5-yl)acetamide]
0.01 to 0.1		79	Cc1ccc(NC(=O)Cc2ccc(C3=CCCN(C#N)C3)nc2)nc1 [Compound 104, 2-(1′-cyano-1′,2′,5′,6′-tetrahydro-[2,3′-bipyridin]-5-yl)-N-(5-methylpyridin-2-yl)acetamide]
< 0.01		88	CN1CCC[C@@H](Oc2cc(NC(=O)Cc3ccc(C4=CCCN(C#N)C4)nc3)ncc2Cl)C1 [Compound 46, (R)-N-(5-chloro-4-((1-methylpiperidin-3-yl)oxy)pyridin-2-yl)-2-(1′-cyano-1′,2′,5′,6′-tetrahydro-[2,3′-bipyridin]-5-yl)acetamide]
< 0.01		87	N#CN1CCC=C(c2ccc(CC(=O)Nc3cc(OC4CCCOC4)c(Cl)cn3)cn2)C1 (stereo not drawn) [Compound 43, N-(5-chloro-4-((tetrahydro-2H-pyran-3-yl)oxy)pyridin-2-yl)-2-(1′-cyano-1′,2′,5′,6′-tetrahydro-[2,3′-bipyridin]-5-yl)acetamide]

SMILES	IC50 [µM]	CDK12 % Inhibition @ 10 μM (compound at 10 μM, 10 µM) [%]	inhibition at 10 µM (compound at 10 μM) [%]
COc1cc(NC(=O)Cc2ccc(C3CC4CCC(C3)N4C#N)nc2)ncc1Cl (stereo not drawn) [Compound 74, N-(5-chloro-4-methoxypyridin-2-yl)-2-(6-(8-cyano-8-azabicyclo[3.2.1]octan-3-yl)pyridin-3-yl)acetamide]	< 0.01		100
CNC(=O)C(C)Oc1cc(NC(=O)Cc2ccc(C3=CCN(C#N)CC3)nc2)ncc1Cl (single isomer, unassigned) [Compound 3, 2-((5-chloro-2-(2-(1′-cyano-1′,2′,3′,6′-tetrahydro-[2,4′-bipyridin]-5-yl)acetamido)pyridin-4-yl)oxy)-N-methylpropanamide]	< 0.01		84

From patent US20260000692A1, “Substituted N-(Pyridin-2-yl)Acetamide Derivatives as CDK12/13 Inhibitors” (Aurigene Oncology Limited, priority 2022, published 2026)
